Measurements taken from patent US6737383B1, “Herbicidal oxadiazolidines” (priority 1999, dated 2004).

What was measured:
[1] = tested on: bedstraw; test: Test B pre/postemergence bedstraw; format: in vivo, Galium aparine
Method in brief: (§1)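 Test chemicals in a non-phytotoxic solvent mixture with surfactant were sprayed preemergence onto planted seeds and postemergence onto plants 2 to 18 cm tall (1- to 4-leaf stage). After twelve to sixteen days in a greenhouse, injury was visually rated against untreated controls from 0 (no effect) to 10 (complete control).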

[2] = tested on: blackgrass; test: Test B pre/postemergence blackgrass; format: in vivo, Alopecurus myosuroides
Method in brief: as §1

[3] = tested on: surinam grass; test: Test B pre/postemergence surinam grass; format: in vivo, Brachiaria decumbens
Method in brief: as §1

[4] = tested on: corn; test: Test B pre/postemergence corn; format: in vivo, Zea mays
Method in brief: as §1

[5] = tested on: crabgrass; test: Test B pre/postemergence crabgrass; format: in vivo, Digitaria sanguinalis
Method in brief: as §1

[6] = tested on: giant foxtail; test: Test B pre/postemergence giant foxtail; format: in vivo, Setaria faberii
Method in brief: as §1

[7] = tested on: morningglory; test: Test B pre/postemergence morningglory; format: in vivo, Ipomoea hederacea
Method in brief: as §1

[8] = tested on: pigweed; test: Test B pre/postemergence pigweed; format: in vivo, Amaranthus retroflexus
Method in brief: as §1

[9] = tested on: rape; test: Test B pre/postemergence rape; format: in vivo, Brassica napus
Method in brief: as §1

[10] = tested on: soybean; test: Test B pre/postemergence soybean; format: in vivo, Glycine max
Method in brief: as §1

[11] = tested on: velvetleaf; test: Test B pre/postemergence velvetleaf; format: in vivo, Abutilon theophrasti
Method in brief: as §1

[12] = tested on: wheat; test: Test B pre/postemergence wheat; format: in vivo, Triticum aestivum
Method in brief: as §1

[13] = tested on: wild oat; test: Test B pre/postemergence wild oat; format: in vivo, Avena fatua
Method in brief: as §1

[14] = tested on: purple nutsedge; test: Test B pre/postemergence purple nutsedge; format: in vivo, Cyperus rotundus
Method in brief: as §1

[15] = tested on: rice; test: Test B flood test rice; format: in vivo, Oryza sativa
Method in brief: (§2)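 Read-out is a visual response score from 0 (no effect) to 10 (complete control), assigned by comparison with untreated controls. Treatment was applied at the 2-leaf stage, and plants stayed in the greenhouse for twelve to sixteen days before scoring.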

[16] = tested on: duck salad; test: Test B flood test duck salad; format: in vivo, Heteranthera limosa
Method in brief: as §2

[17] = Preemergence, Rate 62 g/ha, scale of 0 to 10 where 0 is no effect and 10 is complete control
[18] = Preemergence, Rate 500 g/ha, scale of 0 to 10 where 0 is no effect and 10 is complete control
[19] = Rate 62 g/ha, Postemergence, scale of 0 to 10 where 0 is no effect and 10 is complete control
[20] = Rate 125 g/ha, Postemergence, scale 0 to 10
[21] = Rate 125 g/ha, Preemergence, scale of 0 to 10 where 0 is no effect and 10 is complete control
[22] = Rate 500 g/ha, Postemergence, scale 0 to 10, 0 no effect, 10 complete control
[23] = Preemergence, Rate 250 g/ha, scale of 0 to 10 where 0 is no effect and 10 is complete control
[24] = Rate 62 g/ha, headed Pre-emergence (flood test species), scale 0 to 10 (0 no effect, 10 complete control)
[25] = Rate 125 g/ha, Pre-emergence, flood test species, scale 0 to 10 where 0 is no effect and 10 is complete control
[26] = Rate 250 g/ha, Pre-emergence, flood-test species, scale 0 to 10, 0 is no effect, 10 is complete control
[27] = Rate 500 g/ha, Pre-emergence, flood test species, scale 0 to 10 (0 no effect, 10 complete control)

CON=C(Cn1c(=O)on(C(=O)N(c2ccc(F)cc2)C(C)C)c1=O)C(F)(F)F [Compound 227]
8: Bedstraw plant response rating [1, 20] | Plant response rating (0 to 10; 0 is no effect, 10 is complete control), Bedstraw ([1]; Rate 250 g/ha, Postemergence) | Bedstraw plant response rating [1, 22] | Plant response rating (0 to 10; 0 is no effect, 10 is complete control), Morningglory ([7]; Rate 250 g/ha, Postemergence) | Rape plant response rating [9, 23]
3: Plant response rating, Bedstraw [1, 18] | Crabgrass plant response rating [5, 22] | Redroot pigweed plant response rating [8, 17] | Soybean plant response rating [10, 20] | Velvetleaf plant response rating [11, 22] | Plant response rating (0 to 10; 0 is no effect, 10 is complete control), Wheat ([12]; Rate 250 g/ha, Postemergence) | Wild oats plant response rating [13, 23] | Plant response rating, Wild oats [13, 18]
2: Blackgrass plant response rating [2, 17] | Blackgrass plant response rating [2, 20] | Plant response rating, B. signalgrass [3, 18] | Redroot pigweed plant response rating [8, 20] | Plant response rating, Soybean [10, 18] | Plant response rating, Velvetleaf [11, 18] | Wild oats plant response rating [13, 22]
10: Blackgrass plant response rating [2, 23] | Plant response rating, Blackgrass [2, 18] | Crabgrass plant response rating [5, 23] | Plant response rating, Crabgrass [5, 18] | Crabgrass plant response rating [5, 21] | Giant foxtail plant response rating [6, 23] | Plant response rating, Giant foxtail [6, 18] | Giant foxtail plant response rating [6, 21] | Morningglory plant response rating [7, 22] | Redroot pigweed plant response rating [8, 23] | Plant response rating, Redroot pigweed [8, 18] | Plant response rating, Rape [9, 18]
4: Morningglory plant response rating [7, 19] | Morningglory plant response rating [7, 20] | Rape plant response rating [9, 21] | Plant response rating (0 to 10; 0 is no effect, 10 is complete control), Soybean ([10]; Rate 250 g/ha, Postemergence)
1: Crabgrass plant response rating [5, 17] | Soybean plant response rating [10, 19]
0: Bedstraw plant response rating [1, 17] | Bedstraw plant response rating [1, 21] | Blackgrass plant response rating [2, 19] | B. signalgrass plant response rating [3, 17] | B. signalgrass plant response rating ([3]; Preemergence, Rate 250 g/ha, scale 0 to 10, 0 is no effect, 10 is complete control) | B. signalgrass plant response rating [3, 19] | B. signalgrass plant response rating ([3]; Rate 125 g/ha, Postemergence, scale 0 (no effect) to 10 (complete control)) | B. signalgrass plant response rating [3, 21] | Plant response rating (0 to 10; 0 is no effect, 10 is complete control), B. signalgrass ([3]; Rate 250 g/ha, Postemergence) | B. signalgrass plant response rating [3, 22] | Corn plant response rating [4, 17] | Corn plant response rating [4, 23] | Plant response rating, Corn [4, 18] | Corn plant response rating [4, 19] | Corn plant response rating [4, 20] | Corn plant response rating [4, 21] | Plant response rating (0 to 10; 0 is no effect, 10 is complete control), Corn ([4]; Rate 250 g/ha, Postemergence) | Corn plant response rating [4, 22] | Crabgrass plant response rating [5, 19] | Crabgrass plant response rating [5, 20] | Plant response rating (0 to 10; 0 is no effect, 10 is complete control), Crabgrass ([5]; Rate 250 g/ha, Postemergence) | Giant foxtail plant response rating [6, 19] | Giant foxtail plant response rating [6, 20] | Plant response rating (0 to 10; 0 is no effect, 10 is complete control), Giant foxtail ([6]; Rate 250 g/ha, Postemergence) | Giant foxtail plant response rating [6, 22] | Morningglory plant response rating [7, 17] | Morningglory plant response rating [7, 23] | Plant response rating, Morningglory [7, 18] | Morningglory plant response rating [7, 21] | Redroot pigweed plant response rating [8, 19] | Rape plant response rating [9, 17] | Rape plant response rating [9, 19] | Rape plant response rating [9, 20] | Plant response rating (0 to 10; 0 is no effect, 10 is complete control), Rape ([9]; Rate 250 g/ha, Postemergence) | Rape plant response rating [9, 22] | Soybean plant response rating [10, 17] | Soybean plant response rating [10, 23] | Soybean plant response rating [10, 21] | Velvetleaf plant response rating [11, 17] | Velvetleaf plant response rating [11, 23] | Velvetleaf plant response rating [11, 19] | Velvetleaf plant response rating [11, 20] | Velvetleaf plant response rating [11, 21] | Plant response rating (0 to 10; 0 is no effect, 10 is complete control), Velvetleaf ([11]; Rate 250 g/ha, Postemergence) | Wheat plant response rating [12, 17] | Wheat plant response rating [12, 23] | Plant response rating, Wheat [12, 18] | Wheat plant response rating [12, 19] | Wheat plant response rating [12, 20] | Wheat plant response rating [12, 21] | Wild oats plant response rating [13, 17] | Wild oats plant response rating [13, 19] | Wild oats plant response rating [13, 20] | Wild oats plant response rating [13, 21] | Plant response rating (0 to 10; 0 is no effect, 10 is complete control), Wild oats ([13]; Rate 250 g/ha, Postemergence) | Nutsedge plant response rating [14, 17] | Nutsedge plant response rating [14, 23] | Nutsedge plant response rating [14, 19] | Nutsedge plant response rating [14, 20] | Nutsedge plant response rating [14, 21] | Plant response rating (0 to 10; 0 is no effect, 10 is complete control), Nutsedge ([14]; Rate 250 g/ha, Postemergence) | Nutsedge plant response rating [14, 22] | Rice plant response rating [15, 24] | Rice plant response rating [15, 25] | Rice plant response rating [15, 26] | Rice plant response rating [15, 27] | Ducksalad plant response rating [16, 24] | Ducksalad plant response rating [16, 25] | Ducksalad plant response rating [16, 26] | Ducksalad plant response rating [16, 27]
9: Giant foxtail plant response rating [6, 17]
7: Bedstraw plant response rating [1, 19] | Plant response rating (0 to 10; 0 is no effect, 10 is complete control), Blackgrass ([2]; Rate 250 g/ha, Postemergence) | Blackgrass plant response rating [2, 22] | Redroot pigweed plant response rating [8, 22]
5: Blackgrass plant response rating [2, 21] | Redroot pigweed plant response rating [8, 21] | Plant response rating (0 to 10; 0 is no effect, 10 is complete control), Redroot pigweed ([8]; Rate 250 g/ha, Postemergence) | Soybean plant response rating [10, 22] | Wheat plant response rating [12, 22]
